From patent publication US20210113501A1, “METHOD OF ADMINISTERING BETA-HYDROXY-BETA-METHYLBUTYRATE (HMB)” (Metabolic Technologies, Inc., priority 2009, published 2021)
Marks after values point to notes of the source that are not given here.

Test: Study 1 hematology (complete blood count)
Assay type: in vivo, human
Conditions: for Basophils (absolute) % Change / Basophils, % - % Change / Eosinophils (absolute) % Change / Eosinophils, % - % Change / Hematocrit % Change / Hemoglobin % Change / Lymphocytes (absolute) % Change / Lymphocytes, % - % Change / MCH % Change / MCHC % Change / MCV % Change / Monocytes (absolute) % Change / Monocytes, % - % Change / Neutrophils (absolute) % Change / Neutrophils, % - % Change / Platelets % Change / RBC % Change / RDW % Change / WBC % Change: Before to After
Description: Study 1 design. For study 1 the subjects reported to the laboratory in the morning following an overnight fast. Before ingestion of one of the supplemental treatments, a flexible sterile polyethylene catheter was inserted into a forearm vein using sterile procedures and a pre-ingestion blood sample was drawn. Subsequent blood samples were taken at 0, 2, 5, 10, 15, 25, 35, 45, 60, 90, 120 and 180 min after ingestion of the treatment. Plasma was separated and samples were stored frozen at −70° C. for analysis of HMB concentration. In addition, a portion of the pre-ingestion and 180 minute blood samples were used for measurements (LabCorp, Kansas City, Mo.) of glucose, uric acid, blood urea nitrogen (BUN), creatinine, sodium, potassium, chloride, carbon dioxide, phosphorous, protein, albumin, globulin, albumin:globulin ratio, total bilirubin, direct bilirubin, alkaline phosphatase, lactate dehydrogenase, aspartate aminotransferase (AST), alanine aminotransferase (ALT), gamma-glutamyl transpeptidase (GGT), iron binding capacity (TIBC), unsaturated iron binding capacity (UIBC), iron, iron saturation, total cholesterol, triglycerides, high density lipoprotein (HDL), low density lipoprotein (LDL), and cholesterol ratio. A complete blood count (CBC) was also performed before and after the 180 min treatment period. Subjects also completed a brief questionnaire to report any physical symptoms (such as nausea, headache, etc) they may have experienced during the experiment.
The data were analyzed using a crossover design with Proc GLM in SAS. (45) For the timed sampling of plasma HMB a repeated measures polynomial model was used. The model included subject, order, and treatment main effects and time by treatment interaction where appropriate. For other parameters Proc GLM was also used with subject, order, and treatment main effects and the p values are reported for the treatment main effect. Statistical significance was determined for p<0.05 and a trend was determined for 0.05<p<0.10.

With CC(C)(O)CC(=O)O [HMB-Acid Gel Sublingual, 3-hydroxy-3-methylbutyric acid] the “Basophils (absolute)” value (After (180 min)) was 0.03 ± 0.02 ×10^3/μL, the “Basophils, %” value (After (180 min)) was 0.3 ± 0.2% and the “Eosinophils (absolute)” value (After (180 min)) was 0.1 ± 0.02 ×10^3/μL. For the same compound, the “Eosinophils, %” value (After (180 min)) was 1.8 ± 0.3%, the Hematocrit (After (180 min)) was 38.5 ± 1.7% and the Hemoglobin (After (180 min)) was 13.3 ± 0.6 g/dL. For the same compound, the “Lymphocytes (absolute)” value (After (180 min)) was 2.2 ± 0.2 ×10^3/μL, the “Lymphocytes, %” value (After (180 min)) was 35.5 ± 2.1% and the MCH (After (180 min)) was 31.0 ± 0.5 pg. For the same compound, the MCHC (After (180 min)) was 34.5 ± 0.2 g/dL, the MCV (After (180 min)) was 89.9 ± 1.7 fL and the “Monocytes (absolute)” value (After (180 min)) was 0.5 ± 0.05 ×10^3/μL. For the same compound, the “Monocytes, %” value (After (180 min)) was 7.1 ± 0.7%, the “Neutrophils (absolute)” value (After (180 min)) was 3.5 ± 0.3 ×10^3/μL and the “Neutrophils, %” value (After (180 min)) was 55.4 ± 2.9%. The Platelets (After (180 min)) was 213.9 ± 19.1 ×10^3/μL, the RBC (After (180 min)) was 4.3 ± 0.2 ×10^6/µL and the RDW (After (180 min)) was 13.3 ± 0.2%. The WBC (After (180 min)) was 6.3 ± 0.4 ×10^3/μL, the “Basophils (absolute)” value (Before) was 0.03 ± 0.02 ×10^3/μL and the “Basophils, %” value (Before) was 0.3 ± 0.2%. The “Eosinophils (absolute)” value (Before) was 0.2 ± 0.03 ×10^3/μL, the “Eosinophils, %” value (Before) was 2.4 ± 0.4% and the Hematocrit (Before) was 37.8 ± 1.6%. The Hemoglobin (Before) was 13.1 ± 0.6 g/dL, the “Lymphocytes (absolute)” value (Before) was 2.8 ± 0.2 ×10^3/μL and the “Lymphocytes, %” value (Before) was 43.0 ± 1.4%. For the same compound, the MCH (Before) was 31.0 ± 0.5 pg, the MCHC (Before) was 34.7 ± 0.2 g/dL and the MCV (Before) was 89.6 ± 1.6 fL. The “Monocytes (absolute)” value (Before) was 0.5 ± 0.1 ×10^3/μL, the “Monocytes, %” value (Before) was 7.0 ± 1.0% and the “Neutrophils (absolute)” value (Before) was 3.1 ± 0.3 ×10^3/μL. The “Neutrophils, %” value (Before) was 47.4 ± 2.2%, the Platelets (Before) was 221.3 ± 20.8 ×10^3/μL and the RBC (Before) was 4.2 ± 0.2 ×10^6/µL. For the same compound, the RDW (Before) was 13.2 ± 0.2%, the WBC (Before) was 6.6 ± 0.4 ×10^3/μL and the “Basophils (absolute) % Change” value was 0.0%. The “Basophils, % - % Change” value was 0.0%, the “Eosinophils (absolute) % Change” value was −28.6% and the “Eosinophils, % - % Change” value was −26.3%. For the same compound, the “Hematocrit % Change” value was 2.0%, the “Hemoglobin % Change” value was 1.4% and the “Lymphocytes (absolute) % Change” value was −22.1%. The “Lymphocytes, % - % Change” value was −17.4%, the “MCH % Change” value was 0.0% and the “MCHC % Change” value was −0.5%. For the same compound, the “MCV % Change” value was 0.3%, the “Monocytes (absolute) % Change” value was 0.0% and the “Monocytes, % - % Change” value was 1.8%. The “Neutrophils (absolute) % Change” value was 11.6%, the “Neutrophils, % - % Change” value was 16.9% and the “Platelets % Change” value was −3.3%. For the same compound, the “RBC % Change” value was 1.7%, the “RDW % Change” value was 0.9% and the “WBC % Change” value was −4.2%.

With CC(C)(O)CC(=O)[O-].CC(C)(O)CC(=O)[O-].[Ca+2] [CaHMB, calcium β-hydroxy-β-methylbutryate, reference compound] the “Basophils (absolute)” value (After (180 min)) was 0.04 ± 0.0 ×10^3/μL, the “Basophils, %” value (After (180 min)) was 0.4 ± 0.2% and the “Eosinophils (absolute)” value (After (180 min)) was 0.1 ± 0.04 ×10^3/μL. The “Eosinophils, %” value (After (180 min)) was 2.1 ± 0.6%, the Hematocrit (After (180 min)) was 38.7 ± 1.3% and the Hemoglobin (After (180 min)) was 13.4 ± 0.5 g/dL. The “Lymphocytes (absolute)” value (After (180 min)) was 2.1 ± 0.2 ×10^3/μL, the “Lymphocytes, %” value (After (180 min)) was 34.0 ± 3.4% and the MCH (After (180 min)) was 31.3 ± 0.6 pg. For the same compound, the MCHC (After (180 min)) was 34.7 ± 0.2 g/dL, the MCV (After (180 min)) was 90.4 ± 1.5 fL and the “Monocytes (absolute)” value (After (180 min)) was 0.5 ± 0.1 ×10^3/μL. For the same compound, the “Monocytes, %” value (After (180 min)) was 7.4 ± 0.7%, the “Neutrophils (absolute)” value (After (180 min)) was 3.8 ± 0.7 ×10^3/μL and the “Neutrophils, %” value (After (180 min)) was 56.1 ± 3.8%. The Platelets (After (180 min)) was 202.9 ± 16^ ×10^3/μL, the RBC (After (180 min)) was 4.3 ± 0.2 ×10^6/µL and the RDW (After (180 min)) was 13.1 ± 0.2%. For the same compound, the WBC (After (180 min)) was 6.4 ± 0.7 ×10^3/μL, the “Basophils (absolute)” value (Before) was 0.05 ± 0.0 ×10^3/μL and the “Basophils, %” value (Before) was 0.5 ± 0.2%. For the same compound, the “Eosinophils (absolute)” value (Before) was 0.2 ± 0.04 ×10^3/μL, the “Eosinophils, %” value (Before) was 2.5 ± 0.4% and the Hematocrit (Before) was 38.3 ± 1.1%. For the same compound, the Hemoglobin (Before) was 13.3 ± 0.4 g/dL, the “Lymphocytes (absolute)” value (Before) was 2.5 ± 0.1 ×10^3/μL and the “Lymphocytes, %” value (Before) was 39.6 ± 2.8%. It also gave an MCH (Before) of 31.2 ± 0.6 pg, an MCHC (Before) of 34.7 ± 0.1 g/dL and an MCV (Before) of 90.0 ± 1.5 fL. For the same compound, the “Monocytes (absolute)” value (Before) was 0.5 ± 0.1 ×10^3/μL, the “Monocytes, %” value (Before) was 7.1 ± 0.9% and the “Neutrophils (absolute)” value (Before) was 3.3 ± 0.4 ×10^3/μL. For the same compound, the “Neutrophils, %” value (Before) was 50.3 ± 3.3%, the Platelets (Before) was 209.0 ± 14^ ×10^3/μL and the RBC (Before) was 4.3 ± 0.2 ×10^6/µL. The RDW (Before) was 13.1 ± 0.2%, the WBC (Before) was 6.4 ± 0.4 ×10^3/μL and the “Basophils (absolute) % Change” value was −25.0%. The “Basophils, % - % Change” value was −25.0%, the “Eosinophils (absolute) % Change” value was −21.4% and the “Eosinophils, % - % Change” value was −15.0%. The “Hematocrit % Change” value was 1.2%, the “Hemoglobin % Change” value was 1.2% and the “Lymphocytes (absolute) % Change” value was −15.6%. For the same compound, the “Lymphocytes, % - % Change” value was −14.2%, the “MCH % Change” value was 0.3% and the “MCHC % Change” value was 0.1%. The “MCV % Change” value was 0.4%, the “Monocytes (absolute) % Change” value was 8.3% and the “Monocytes, % - % Change” value was 3.5%. The “Neutrophils (absolute) % Change” value was 14.5%, the “Neutrophils, % - % Change” value was 11.7% and the “Platelets % Change” value was −2.9%. For the same compound, the “RBC % Change” value was 1.0%, the “RDW % Change” value was 0.1% and the “WBC % Change” value was 0.3%.

With CC(C)(O)CC(=O)O [HMB-Acid Gel Swallow, 3-hydroxy-3-methylbutyric acid] the “Basophils (absolute)” value (After (180 min)) was 0.04 ± 0.02 ×10^3/μL, the “Basophils, %” value (After (180 min)) was 0.4 ± 0.2% and the “Eosinophils (absolute)” value (After (180 min)) was 0.1 ± 0.02 ×10^3/μL. For the same compound, the “Eosinophils, %” value (After (180 min)) was 2.4 ± 0.4%, the Hematocrit (After (180 min)) was 37.6 ± 1.5% and the Hemoglobin (After (180 min)) was 13.0 ± 0.5 g/dL. The “Lymphocytes (absolute)” value (After (180 min)) was 2.2 ± 0.1 ×10^3/μL, the “Lymphocytes, %” value (After (180 min)) was 37.4 ± 1.9% and the MCH (After (180 min)) was 31.4 ± 0.8 pg. The MCHC (After (180 min)) was 34.6 ± 0.3 g/dL, the MCV (After (180 min)) was 90.0 ± 1.5 fL and the “Monocytes (absolute)” value (After (180 min)) was 0.5 ± 0.04 ×10^3/μL. For the same compound, the “Monocytes, %” value (After (180 min)) was 7.0 ± 0.6%, the “Neutrophils (absolute)” value (After (180 min)) was 3.3 ± 0.2 ×10^3/μL and the “Neutrophils, %” value (After (180 min)) was 52.9 ± 2.2%. The Platelets (After (180 min)) was 202.4 ± 25. ×10^3/μL, the RBC (After (180 min)) was 4.2 ± 0.2 ×10^6/µL and the RDW (After (180 min)) was 13.2 ± 0.3%. The WBC (After (180 min)) was 6.1 ± 0.3 ×10^3/μL, the “Basophils (absolute)” value (Before) was 0.01 ± 0.01^a ×10^3/μL and the “Basophils, %” value (Before) was 0.1 ± 0.1^a %. For the same compound, the “Eosinophils (absolute)” value (Before) was 0.2 ± 0.04 ×10^3/μL, the “Eosinophils, %” value (Before) was 2.5 ± 0.3% and the Hematocrit (Before) was 37.6 ± 1.6%. The Hemoglobin (Before) was 13.1 ± 0.5 g/dL, the “Lymphocytes (absolute)” value (Before) was 3.1 ± 0.3 ×10^3/μL and the “Lymphocytes, %” value (Before) was 43.8 ± 2.8%. The MCH (Before) was 31.2 ± 0.7 pg, the MCHC (Before) was 34.7 ± 0.3 g/dL and the MCV (Before) was 90.1 ± 1.3 fL. For the same compound, the “Monocytes (absolute)” value (Before) was 0.5 ± 0.1 ×10^3/μL, the “Monocytes, %” value (Before) was 7.6 ± 0.7% and the “Neutrophils (absolute)” value (Before) was 3.0 ± 0.2 ×10^3/μL. The “Neutrophils, %” value (Before) was 46.0 ± 2.8%, the Platelets (Before) was 195.0 ± 31.5 ×10^3/μL and the RBC (Before) was 4.2 ± 0.2 ×10^6/µL. For the same compound, the RDW (Before) was 13.2 ± 0.2%, the WBC (Before) was 6.7 ± 0.5 ×10^3/μL and the “Basophils (absolute) % Change” value was 200.0%. For the same compound, the “Basophils, % - % Change” value was 200.0%, the “Eosinophils (absolute) % Change” value was −41.2% and the “Eosinophils, % - % Change” value was −5.0%. For the same compound, the “Hematocrit % Change” value was −0.1%, the “Hemoglobin % Change” value was −0.4% and the “Lymphocytes (absolute) % Change” value was −29.1%. For the same compound, the “Lymphocytes, % - % Change” value was −14.6%, the “MCH % Change” value was 0.7% and the “MCHC % Change” value was −0.3%. The “MCV % Change” value was −0.1%, the “Monocytes (absolute) % Change” value was −7.7% and the “Monocytes, % - % Change” value was −8.2%. The “Neutrophils (absolute) % Change” value was 10.9%, the “Neutrophils, % - % Change” value was 14.9% and the “Platelets % Change” value was 3.8%. For the same compound, the “RBC % Change” value was 0.1%, the “RDW % Change” value was 0.4% and the “WBC % Change” value was −10.2%. The “decrease in absolute lymphocyte numbers over the measurement period” value (p<0.04) was “significantly greater decrease”.
